According to patent publication US8497278B2, “Imidazo[1,2-a]pyridine compounds” (priority 2008, dated 2013):

Legend:
[1] = target: T1, α1 subtype containing GABA-A receptors (Homo sapiens, UniProt P14867+P18507); test: Two-electrode voltage clamp electrophysiology in Xenopus oocytes, potentiation of GABA EC20 response, α1; type: cell-based; settings: 100 nM compound; for activation at 0.1 µM: read-out: Percentage of potentiation alpha1
T1 construct: expressed in transfected cells; host or cells: Xenopus laevis oocytes, cRNA injected
T1 sequence (P14867 28-456): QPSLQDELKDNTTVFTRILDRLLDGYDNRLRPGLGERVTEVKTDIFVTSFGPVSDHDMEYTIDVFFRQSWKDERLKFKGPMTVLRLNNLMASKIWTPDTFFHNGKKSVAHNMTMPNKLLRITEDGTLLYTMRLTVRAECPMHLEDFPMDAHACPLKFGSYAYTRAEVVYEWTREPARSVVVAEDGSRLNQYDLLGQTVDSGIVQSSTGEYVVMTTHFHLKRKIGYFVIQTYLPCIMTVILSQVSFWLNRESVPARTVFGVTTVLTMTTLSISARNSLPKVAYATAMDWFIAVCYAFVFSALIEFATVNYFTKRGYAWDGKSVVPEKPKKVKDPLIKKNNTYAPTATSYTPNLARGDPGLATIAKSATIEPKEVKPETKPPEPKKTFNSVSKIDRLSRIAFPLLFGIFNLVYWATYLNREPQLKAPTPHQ
T1 sequence (P28472 26-473 partner): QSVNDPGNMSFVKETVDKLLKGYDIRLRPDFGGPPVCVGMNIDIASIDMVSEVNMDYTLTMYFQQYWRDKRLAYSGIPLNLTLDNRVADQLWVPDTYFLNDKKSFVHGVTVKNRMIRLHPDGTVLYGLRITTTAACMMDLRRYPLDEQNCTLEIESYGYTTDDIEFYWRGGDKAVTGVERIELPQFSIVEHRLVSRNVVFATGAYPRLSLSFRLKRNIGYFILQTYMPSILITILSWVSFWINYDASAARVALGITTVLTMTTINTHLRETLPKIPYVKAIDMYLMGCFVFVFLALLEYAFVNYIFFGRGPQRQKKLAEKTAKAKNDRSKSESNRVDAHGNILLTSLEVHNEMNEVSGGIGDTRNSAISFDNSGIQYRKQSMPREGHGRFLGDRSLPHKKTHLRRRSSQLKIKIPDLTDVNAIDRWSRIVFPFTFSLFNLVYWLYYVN
T1 sequence (P18507 40-475): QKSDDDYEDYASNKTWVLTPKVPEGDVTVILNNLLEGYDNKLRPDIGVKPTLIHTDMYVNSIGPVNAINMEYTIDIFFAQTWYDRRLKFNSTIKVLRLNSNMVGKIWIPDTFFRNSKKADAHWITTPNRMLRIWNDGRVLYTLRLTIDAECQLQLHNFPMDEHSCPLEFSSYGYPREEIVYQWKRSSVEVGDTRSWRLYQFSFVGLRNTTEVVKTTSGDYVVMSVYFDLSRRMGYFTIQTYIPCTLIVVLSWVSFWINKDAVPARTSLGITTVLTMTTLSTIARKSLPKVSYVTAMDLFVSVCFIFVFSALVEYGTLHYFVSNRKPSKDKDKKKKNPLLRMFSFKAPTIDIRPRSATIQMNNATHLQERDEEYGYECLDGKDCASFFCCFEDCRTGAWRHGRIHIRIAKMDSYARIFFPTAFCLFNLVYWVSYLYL
Procedure: (§1) Electrophysiology protocol: Oocytes were prepared from adult female Xenopus laevis frogs. cRNA encoding human α1, α2, α3, α5, β3 and γ2L GABAA receptor subunits was injected into the cytoplasm of stage 5 or 6 oocytes using the Robocyte Robot (Multi Channel Systems, Reutlingen, Germany). Two-electrode voltage clamp recordings were made in 96-well plates using the Robocyte Robot. Oocytes were impaled using recording heads with two glass electrodes containing 1.5 M potassium acetate and 0.5 M KCl and held at a membrane potential of −80 mV. Oocytes were continually perfused with a ND96 solution (96 mM NaCl, 2 mM KCl, 0.1 mM CaCl2, and 5 mM HEPES, pH 7.5) using a Gilson 222 XL Liquid Handler and Gilson Minipuls 3 Peristaltic Pump (Gilson Medical Electronics, Middleton, Wis., USA). The protocol consisted of three 20-s applications of GABA that gave a 20% of the maximum response (EC20: 60 μM) to allow for headroom to determine a baseline GABA response. To assess the potentiation, oocytes were first exposed to a single 1 μM chlordiazepoxide (CDP) as a potentiation standard. Oocytes with insufficient expression levels (currents below threshold) or insufficient γ2L subunit incorporation (judged by rapid desensitization upon GABA application, or by insufficient potentiation by CDP) were not included in analysis. Following this control application, a given oocyte was exposed to test compounds at 100 nM concentrations. Only one concentration of one compound was tested per oocyte. […] One skilled in the art will recognize that subtypes contribute to the effects of GABA-A modulators. Such that compounds favoring different subtypes can have different therapeutic effects. The magnitude of modulation, for example, partial modulators can influence the effects in vivo. “++” indicates a greater modulation that “+” so that at any given subtype “++” inducates a greater amount of modulation for that subtype. In some embodiments, modulation favoring alpha 1 relative to alpha2 and/or alpha 3 can have sedative hypnotic effects. In other embodiments, compounds with reduced selectivity of alpha 1 can express anxiolytic effects with less sedation. Compounds with selectivity for alpha 5 can have memory/cognition enhancing effects.

[2] = tested on: central benzodiazepine receptors; test: Central benzodiazepine receptor binding (test of Speth et al.); settings: 1000 nM of the compound
Outline: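 Radioligand binding by the Speth et al. method. Specific binding is total minus nonspecific binding, the latter measured with excess unlabelled ligand. Compounds screened at 1.0E-09, 1.0E-07 and 1.0E-05 M in single determination; values given as percent inhibition at 1000 nM compound.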

[3] = target: T2, α2 subtype containing GABA-A receptors (Homo sapiens, UniProt P18507+P47869); test: Two-electrode voltage clamp electrophysiology in Xenopus oocytes, potentiation of GABA EC20 response, α2; type: cell-based; settings: 100 nM compound; for activation at 0.1 µM: read-out: Percentage of potentiation alpha2
T2 construct: expressed in transfected cells; host or cells: Xenopus laevis oocytes, cRNA injected
T2 sequence (P47869 29-451): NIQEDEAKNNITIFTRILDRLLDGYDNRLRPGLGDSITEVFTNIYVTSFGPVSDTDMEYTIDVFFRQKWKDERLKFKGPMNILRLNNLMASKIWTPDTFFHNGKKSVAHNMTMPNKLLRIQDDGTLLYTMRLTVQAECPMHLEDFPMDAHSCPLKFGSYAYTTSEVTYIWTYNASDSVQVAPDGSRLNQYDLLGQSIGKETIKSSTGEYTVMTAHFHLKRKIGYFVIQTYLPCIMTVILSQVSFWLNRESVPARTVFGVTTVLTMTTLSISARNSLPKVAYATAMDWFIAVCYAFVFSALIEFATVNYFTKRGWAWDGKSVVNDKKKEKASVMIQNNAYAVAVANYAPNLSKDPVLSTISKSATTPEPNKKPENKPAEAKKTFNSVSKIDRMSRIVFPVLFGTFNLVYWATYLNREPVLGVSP
T2 sequence (P28472 26-473 partner): as the sequence (P28472 26-473 partner) above
T2 sequence (P18507 40-475): as the sequence (P18507 40-475) above
Procedure: as §1

Row | SMILES | activation at 0.1 µM [1] [%] | % Inhibition at 1000 nM for CBZD [2] | activation at 0.1 µM [3] [%] | Percentage of potentiation alpha1 [1] | Percentage of potentiation alpha2 [3]
1 | Cc1ccc(-c2nc3ccc(C)cn3c2CSc2nnc(C)s2)cc1 [Compound 179, 6-Methyl-3-(5-methyl-[1,3,4]thiadiazol-2-ylsulfanylmethyl)-2-p-tolyl-imidazo[1,2-a]pyridine] | -10 to 10 | ++ (percentage of inhibition of central BZD site binding is greater than 80% in the presence of 1000 nM of the compound) | -10 to 10 | – | –
2 | Cc1ccc(-c2nc3ccc(C)cn3c2Cn2nc(C)cc2C)cc1 [Compound 9, 6-Methyl-3-((3,5-dimethyl-1H-pyrazol-1-yl)methyl)-2-p-tolylH-imidazo[1,2-a]pyridine] | – | ++ (percentage of inhibition of central BZD site binding is greater than 80% in the presence of 1000 nM of the compound) | – | + (percentage of potentiation is greater than or equal to 10% but less than 50% in the presence of 100 nM of the compound) | + (percentage of potentiation is greater than or equal to 10% but less than 50% in the presence of 100 nM of the compound)
3 | CN1CC[C@H](Oc2ccnc(NCc3c(-c4ccc(F)cc4)nc4ccc(Cl)cn34)n2)C1 [Compound 184, (S)—N-((6-chloro-2-(4-fluorophenyl)imidazo[1,2-a]pyridin-3-yl)methyl)-4-(1-methylpyrrolidin-3-yloxy)pyrimidin-2-amine] | 10 to 50 | ++ (percentage of inhibition of central BZD site binding is greater than 80% in the presence of 1000 nM of the compound) | 10 to 50 | – | –
4 | COc1ccc(NCc2c(-c3ccccc3)nc3ccc(Cl)cn23)nn1 [Compound 165, N-((6-chloro-2-phenylimidazo[1,2-a]pyridin-3-yl)methyl)-6-methoxypyridazin-3-amine] | 10 to 50 | ++ (percentage of inhibition of central BZD site binding is greater than 80% in the presence of 1000 nM of the compound) | 10 to 50 | – | –
5 | COC(=O)c1ncnn1Cc1c(-c2ccccc2)nc2ccc(Cl)cn12 [Compound 44, 2-(6-Chloro-2-phenyl-imidazo[1,2-a]pyridin-3-ylmethyl)-2H-[1,2,4]triazole-3-carboxylic acid methyl ester] | -10 to 10 | ++ (percentage of inhibition of central BZD site binding is greater than 80% in the presence of 1000 nM of the compound) | -10 to 10 | – | –
6 | OC1CCN(c2ccnc(NCc3c(-c4ccc(F)cc4)nc4ccc(Cl)cn34)n2)C1 (stereo not drawn) [Compound 189, 1-(2-((6-chloro-2-(4-fluorophenyl)imidazo[1,2-a]pyridin-3-yl)methylamino)pyrimidin-4-yl)pyrrolidin-3-ol] | ≥ 50 | ++ (percentage of inhibition of central BZD site binding is greater than 80% in the presence of 1000 nM of the compound) | ≥ 50 | – | –
7 | Cn1ccnc1Cc1c(-c2ccc(Cl)cc2)nc2ccccn12 [Compound 206, 2-(4-chlorophenyl)-3-((1-methyl-1H-imidazol-2-yl)methyl)imidazo[1,2-a]pyridine] | ≥ 50 | ++ (percentage of inhibition of central BZD site binding is greater than 80% in the presence of 1000 nM of the compound) | ≥ 50 | – | –
8 | Fc1ccc2nc(-c3ccc(Cl)cc3)c(Cn3ccnn3)n2c1 [Compound 57, 3-((1H-1,2,3-triazol-1-yl)methyl)-2-(4-chlorophenyl)-6-fluoroH-imidazo[1,2-a]pyridine] | – | ++ (percentage of inhibition of central BZD site binding is greater than 80% in the presence of 1000 nM of the compound) | – | + (percentage of potentiation is greater than or equal to 10% but less than 50% in the presence of 100 nM of the compound) | ++ (percentage of potentiation is greater than or equal to 50% in the presence of 100 nM of the compound)
9 | Cc1ccc(-c2nc3ccc(C)cn3c2Cn2cncn2)cc1 [Compound 7, 3-((1H-1,2,4-triazol-1-yl)methyl)-6-methyl-2-p-tolylH-imidazo[1,2-a]pyridine] | – | ++ (percentage of inhibition of central BZD site binding is greater than 80% in the presence of 1000 nM of the compound) | – | + (percentage of potentiation is greater than or equal to 10% but less than 50% in the presence of 100 nM of the compound) | + (percentage of potentiation is greater than or equal to 10% but less than 50% in the presence of 100 nM of the compound)
10 | Fc1ccc2nc(-c3ccc(Cl)cc3)c(Cn3nccn3)n2c1 [Compound 56, 3-((2H-1,2,3-triazol-2-yl)methyl)-2-(4-chlorophenyl)-6-fluoroH-imidazo[1,2-a]pyridine] | – | ++ (percentage of inhibition of central BZD site binding is greater than 80% in the presence of 1000 nM of the compound) | – | + (percentage of potentiation is greater than or equal to 10% but less than 50% in the presence of 100 nM of the compound) | ++ (percentage of potentiation is greater than or equal to 50% in the presence of 100 nM of the compound)
11 | CN(C)CCNC(=O)c1nccn1Cc1c(-c2ccc(Cl)cc2)nc2ccccn12 [Compound 78, 1-((2-(4-chlorophenyl)H-imidazo[1,2-a]pyridin-3-yl)methyl)-N-(2-(dimethylamino)ethyl)-1H-imidazole-2-carboxamide] | – | ++ (percentage of inhibition of central BZD site binding is greater than 80% in the presence of 1000 nM of the compound) | – | + (percentage of potentiation is greater than or equal to 10% but less than 50% in the presence of 100 nM of the compound) | + (percentage of potentiation is greater than or equal to 10% but less than 50% in the presence of 100 nM of the compound)
12 | O=c1nc(-n2cncn2)ccn1Cc1c(-c2ccc(Cl)cc2)nc2ccccn12 [Compound 138, 1-((2-(4-chlorophenyl)imidazo[1,2-a]pyridin-3-yl)methyl)-4-(1H-1,2,4-triazol-1-yl)pyrimidin-2(1H)-one] | 10 to 50 | ++ (percentage of inhibition of central BZD site binding is greater than 80% in the presence of 1000 nM of the compound) | 10 to 50 | – | –
13 | Cc1ccc(-c2nc3ccc(C)cn3c2Cn2ccnc2C)cc1 [Compound 2, 6-Methyl-3-((2-methyl-1H-imidazol-1-yl)methyl)-2-p-tolylH-imidazo[1,2-a]pyridine] | – | ++ (percentage of inhibition of central BZD site binding is greater than 80% in the presence of 1000 nM of the compound) | – | + (percentage of potentiation is greater than or equal to 10% but less than 50% in the presence of 100 nM of the compound) | + (percentage of potentiation is greater than or equal to 10% but less than 50% in the presence of 100 nM of the compound)
14 | O=C(NO)c1nc(Cc2c(-c3ccc(F)cc3)nc3ccc(F)cn23)no1 [Compound 223, 3-((2-(4-fluorophenyl)-6-fluoroimidazo[1,2-a]pyridin-3-yl)methyl)-N-hydroxy-1,2,4-oxadiazole-5-carboxamide] | ≤ -10 | – | 10 to 50 | – | –
15 | Nc1ccn(Cc2c(-c3ccc(Cl)cc3)nc3ccccn23)c(=O)n1 [Compound 106, 4-amino-1-((2-(4-chlorophenyl)imidazo[1,2-a]pyridin-3-yl)methyl)pyrimidin-2(1H)-one] | 10 to 50 | – | 10 to 50 | – | –
16 | CN(O)C(=O)c1nc(Cc2c(-c3ccc(F)cc3)nc3ccc(F)cn23)no1 [Compound 225, 3-((6-fluoro-2-(4-fluorophenyl)imidazo-[1,2-a]pyridin-3-yl)methyl)-N-hydroxy-N-methyl-1,2,4-oxadiazole-5-carboxamide] | ≤ -10 | – | 10 to 50 | – | –
